# Legend:
# [1] = tested on: Zymoseptoria tritici; test: Leaf blotch of wheat (SEPTTR) disease control on wheat seedlings; type: in vivo; set-up: key to SEPTTR 1DP, HV activity at 100 ppm (% control rating) / SEPTTR 3DC, HV activity at 100 ppm (% control rating) / SEPTTR disease control, 1DP / SEPTTR disease control, 3DC / SEPTTR 1DP disease control rating, HV activity / SEPTTR 3DC disease control rating, HV activity / SEPTTR 3DC, LV activity at 125.1 g/H (% Control rating) / SEPTTR 1DP, LV activity at 125.1 g/H (% Control rating) / SEPTTR 1DP disease control rating, LV activity at 125.1 g/H / SEPTTR 3DC disease control rating, LV activity at 125.1 g/H / SEPTTR 3DC disease control rating, HV activity at 100 ppm / SEPTTR 1DP disease control rating, HV activity at 100 ppm / HV activity at 100 ppm SEPTTR 3DC (disease control rating) / HV activity at 100 ppm SEPTTR 1DP (disease control rating) / LV activity at 125.1 g/H SEPTTR 1DP (disease control rating) / LV activity at 125.1 g/H SEPTTR 3DC (disease control rating): A: > 80; B: ≤ 80; C: Not Tested; D: No Activity Observed in the Reported Assay; details: for SEPTTR 1DP disease control rating, HV activity / SEPTTR 3DC disease control rating, HV activity: HV application at 100 ppm; for SEPTTR disease control, 1DP / SEPTTR disease control, 3DC: HV activity at 100 ppm, wheat
# Experimental: (§1) All fungicides were evaluated using the aforementioned method for their activity vs. all target diseases, unless stated otherwise. Wheat leaf blotch and brown rust activity were also evaluated using track spray applications, in which case the fungicides were formulated as EC formulations, containing 0.1% Trycol 5941 in the spray solutions. Wheat plants (variety Yuma) were grown from seed in a greenhouse in 50% mineral soil/50% soil-less Metro mix until the first leaf was fully emerged, with 7-10 seedlings per pot. These plants were inoculated with an aqueous spore suspension of Zymoseptoria tritici either prior to or after fungicide treatments. After inoculation the plants were kept in 100% relative humidity (one day in a dark dew chamber followed by two to three days in a lighted dew chamber at 20° C.) to permit spores to germinate and infect the leaf. The plants were then transferred to a greenhouse set at 20° C. for disease to develop. When disease symptoms were fully expressed on the 1st leaves of untreated plants, infection levels were assessed on a scale of 0 to 100 percent disease severity. Percent disease control was calculated using the ratio of disease severity on treated plants relative to untreated plants.
# [2] = tested on: Puccinia triticina; test: Wheat brown rust (PUCCRT) disease control on wheat seedlings; type: in vivo; set-up: key to PUCCRT 3DC, HV activity at 100 ppm (% control rating) / PUCCRT disease control, 3DC / PUCCRT 1DP disease control rating, HV activity / PUCCRT 3DC disease control rating, HV activity / PUCCRT 3DC, LV activity at 125.1 g/H (% Control rating) / PUCCRT 1DP, LV activity at 125.1 g/H (% Control rating) / PUCCRT 3DC disease control rating, LV activity at 125.1 g/H / PUCCRT 1DP disease control rating, LV activity at 125.1 g/H / PUCCRT 3DC disease control rating, HV activity at 100 ppm / PUCCRT 1DP disease control rating, HV activity at 100 ppm / HV activity at 100 ppm PUCCRT 3DC (disease control rating) / LV activity at 125.1 g/H PUCCRT 1DP (disease control rating) / LV activity at 125.1 g/H PUCCRT 3DC (disease control rating): A: > 80; B: ≤ 80; C: Not Tested; D: No Activity Observed in the Reported Assay; details: for PUCCRT 1DP disease control rating, HV activity / PUCCRT 3DC disease control rating, HV activity: HV application at 100 ppm; for PUCCRT disease control, 1DP / PUCCRT disease control, 3DC: HV activity at 100 ppm, wheat
# Experimental: as §1, with “plants. Example B: Evaluation of Fungicidal Activity: Wheat Brown Rust (Puccinia triticina; Synonym: Puccinia recondita f. sp. Tritici; Bayer Code PUCCRT) Wheat plants (variety Yuma) were grown from seed in a greenhouse in 50% mineral soil/50% soil-less Metro mix until the first leaf was fully emerged, with 7-10 seedlings per pot. These plants were inoculated with an aqueous spore suspension of Puccinia triticina either prior to or after fungicide treatments. […] The plants were then transferred to a greenhouse set at 24° C. for disease to develop. Fungicide formulation, application and disease assessment followed the procedures as described in the Example A.” for “plants.”
# [3] = low volume application, 125.1 g/H, 1 Day Protectant
# [4] = low volume application, 125.1 g/H, 3 Day Curative
# [5] = 1 Day Protectant, wheat leaf blotch
# [6] = 3 Day Curative, wheat leaf blotch
# [7] = 1 Day Protectant, wheat brown rust
# [8] = 3 Day Curative, wheat brown rust
# [9] = high volume application, 100 ppm, 1 day protectant
# [10] = high volume application, 100 ppm, 3 day curative
# [11] = low volume application, 125.1 g/H, 1 day protectant
# [12] = low volume application, 125.1 g/H, 3 day curative
# [13] = high volume application, 100 ppm
smiles,measurement,setting,value
CCC(CC)[C@@H](Oc1cc(F)ccc1F)[C@H](C)OC(=O)[C@@H](NC(=O)c1nccc(OC)c1OCOC(C)=O)C(C)C [Cmpd 650],"SEPTTR 1DP, LV activity at 125.1 g/H (% Control rating)",[1]; [3],D
same,"SEPTTR 3DC, LV activity at 125.1 g/H (% Control rating)",[1]; [4],B (≤ 80)
same,"PUCCRT 1DP, LV activity at 125.1 g/H (% Control rating)",[2]; [3],A (> 80)
same,"PUCCRT 3DC, LV activity at 125.1 g/H (% Control rating)",[2]; [4],B (≤ 80)
C=CCC(Oc1ccccc1)C(C)OC(=O)C(C)NC(=O)c1nccc(OC)c1O (centres unmarked) [Cmpd 437],"SEPTTR 1DP disease control rating, HV activity",[1]; [5],B (≤ 80)
same,"SEPTTR 3DC disease control rating, HV activity",[1]; [6],A (> 80)
same,"PUCCRT 1DP disease control rating, HV activity",[2]; [7],A (> 80)
same,"PUCCRT 3DC disease control rating, HV activity",[2]; [8],A (> 80)
CCC(CCOC)C(Oc1ccccc1)C(C)OC(=O)C(C)NC(=O)c1nccc(OC)c1OC(C)=O (centres unmarked) [Cmpd 481],"SEPTTR 1DP, LV activity at 125.1 g/H (% Control rating)",[1]; [3],B (≤ 80)
same,"SEPTTR 3DC, LV activity at 125.1 g/H (% Control rating)",[1]; [4],A (> 80)
same,"PUCCRT 1DP, LV activity at 125.1 g/H (% Control rating)",[2]; [3],A (> 80)
same,"PUCCRT 3DC, LV activity at 125.1 g/H (% Control rating)",[2]; [4],A (> 80)
CCC[C@@H](OCC1CC1)[C@H](C)OC(=O)[C@H](C)NC(=O)c1nccc(OC)c1O [Cmpd 1003],"SEPTTR 1DP disease control rating, HV activity at 100 ppm",[1]; [9],A (> 80)
same,"SEPTTR 3DC disease control rating, HV activity at 100 ppm",[1]; [10],B (≤ 80)
same,"PUCCRT 1DP disease control rating, HV activity at 100 ppm",[2]; [9],A (> 80)
same,"PUCCRT 3DC disease control rating, HV activity at 100 ppm",[2]; [10],A (> 80)
CCC(CC)[C@H](Oc1ccc(Cl)cc1)[C@H](C)OC(=O)[C@H](C)NC(=O)c1nccc(OC)c1O [Cmpd 420],"SEPTTR 1DP disease control rating, HV activity",[1]; [5],A (> 80)
same,"SEPTTR 3DC disease control rating, HV activity",[1]; [6],B (≤ 80)
same,"PUCCRT 1DP disease control rating, HV activity",[2]; [7],B (≤ 80)
same,"PUCCRT 3DC disease control rating, HV activity",[2]; [8],B (≤ 80)
COc1ccnc(C(=O)NC(C)C(=O)OC(C)C(Oc2cccc(Cl)c2)C(C)C)c1OC(C)=O (centres unmarked) [Cmpd 857],"SEPTTR 1DP disease control rating, LV activity at 125.1 g/H",[1]; [11],B (≤ 80)
same,"SEPTTR 3DC disease control rating, LV activity at 125.1 g/H",[1]; [12],B (≤ 80)
same,"PUCCRT 1DP disease control rating, LV activity at 125.1 g/H",[2]; [11],A (> 80)
same,"PUCCRT 3DC disease control rating, LV activity at 125.1 g/H",[2]; [12],A (> 80)
COc1ccnc(C(=O)N[C@@H](C)C(=O)O[C@@H](C)[C@H](Oc2ccc(C)cc2Cl)C(C)(C)C)c1OC(C)=O [Cmpd 1067],LV activity at 125.1 g/H SEPTTR 1DP (disease control rating),"[1]; low volume application, 125.1 g/H, 1 Day Protectant, wheat leaf blotch",D
same,LV activity at 125.1 g/H SEPTTR 3DC (disease control rating),"[1]; low volume application, 125.1 g/H, 3 Day Curative, wheat leaf blotch",B (≤ 80)
same,LV activity at 125.1 g/H PUCCRT 1DP (disease control rating),"[2]; low volume application, 125.1 g/H, 1 Day Protectant, wheat brown rust",A (> 80)
same,LV activity at 125.1 g/H PUCCRT 3DC (disease control rating),"[2]; low volume application, 125.1 g/H, 3 Day Curative, wheat brown rust",B (≤ 80)
CCC(CC)[C@@H](OCC(C)C)[C@H](C)OC(=O)[C@H](C)NC(=O)c1nccc(OC)c1O [Cmpd 354],"SEPTTR 1DP disease control rating, HV activity",[1]; [5],B (≤ 80)
same,"SEPTTR 3DC disease control rating, HV activity",[1]; [6],B (≤ 80)
same,"PUCCRT 1DP disease control rating, HV activity",[2]; [7],B (≤ 80)
same,"PUCCRT 3DC disease control rating, HV activity",[2]; [8],A (> 80)
COc1ccnc(C(=O)N[C@@H](C)C(=O)O[C@@H](C)[C@H](Oc2ccc(C(F)(F)F)cc2)C(C)C)c1OCOC(C)=O [Cmpd 618],"SEPTTR 1DP, LV activity at 125.1 g/H (% Control rating)",[1]; [3],B (≤ 80)
same,"SEPTTR 3DC, LV activity at 125.1 g/H (% Control rating)",[1]; [4],A (> 80)
same,"PUCCRT 1DP, LV activity at 125.1 g/H (% Control rating)",[2]; [3],A (> 80)
same,"PUCCRT 3DC, LV activity at 125.1 g/H (% Control rating)",[2]; [4],A (> 80)
CCCOC(CC)C(Oc1ccccc1)C(C)OC(=O)C(CC(C)C)NC(=O)c1nccc(OC)c1O (centres unmarked) [Cmpd 291],"SEPTTR disease control, 1DP",[1]; 1 Day Protectant,D
same,"SEPTTR disease control, 3DC",[1]; 3 Day Curative,D
same,"SEPTTR 1DP disease control rating, HV activity",[1]; [5],D
same,"SEPTTR 3DC disease control rating, HV activity",[1]; [6],D
same,"SEPTTR 1DP, HV activity at 100 ppm (% control rating)",[1]; [13],D
same,"SEPTTR 3DC, HV activity at 100 ppm (% control rating)",[1]; [13],D
same,"PUCCRT disease control, 1DP",[2]; 1 Day Protectant,B (≤ 80)
same,"PUCCRT disease control, 3DC",[2]; 3 Day Curative,D
same,"PUCCRT 1DP disease control rating, HV activity",[2]; [7],B (≤ 80)
same,"PUCCRT 3DC disease control rating, HV activity",[2]; [8],D
same,"PUCCRT 1DP, HV activity at 100 ppm (% control rating)",[2]; [13],B (≤ 80)
same,"PUCCRT 3DC, HV activity at 100 ppm (% control rating)",[2]; [13],D
COc1ccnc(C(=O)NC(C(=O)OC(C)C(Oc2cccc3ccccc23)C(C)C)C(C)C)c1O (centres unmarked) [Cmpd 400],"SEPTTR 1DP disease control rating, HV activity",[1]; [5],B (≤ 80)
same,"SEPTTR 3DC disease control rating, HV activity",[1]; [6],B (≤ 80)
same,"PUCCRT 1DP disease control rating, HV activity",[2]; [7],A (> 80)
same,"PUCCRT 3DC disease control rating, HV activity",[2]; [8],B (≤ 80)
CCCOC(CC)C(Oc1ccccc1)C(C)OC(=O)C(NC(=O)c1nccc(OC)c1O)C(C)C (centres unmarked) [Cmpd 290],"SEPTTR disease control, 1DP",[1]; 1 Day Protectant,B (≤ 80)
same,"SEPTTR disease control, 3DC",[1]; 3 Day Curative,B (≤ 80)
same,"SEPTTR 1DP disease control rating, HV activity",[1]; [5],B (≤ 80)
same,"SEPTTR 3DC disease control rating, HV activity",[1]; [6],B (≤ 80)
same,"SEPTTR 1DP, HV activity at 100 ppm (% control rating)",[1]; [13],B (≤ 80)
same,"SEPTTR 3DC, HV activity at 100 ppm (% control rating)",[1]; [13],B (≤ 80)
same,"PUCCRT disease control, 1DP",[2]; 1 Day Protectant,A (> 80)
same,"PUCCRT disease control, 3DC",[2]; 3 Day Curative,B (≤ 80)
same,"PUCCRT 1DP disease control rating, HV activity",[2]; [7],A (> 80)
same,"PUCCRT 3DC disease control rating, HV activity",[2]; [8],B (≤ 80)
same,"PUCCRT 1DP, HV activity at 100 ppm (% control rating)",[2]; [13],A (> 80)
same,"PUCCRT 3DC, HV activity at 100 ppm (% control rating)",[2]; [13],B (≤ 80)
CCC(CC)[C@@H](Oc1ccc(Cl)cc1)[C@H](C)OC(=O)[C@@H](NC(=O)c1nccc(OC)c1OCOC(C)=O)C(C)C [Cmpd 648],"SEPTTR 1DP, LV activity at 125.1 g/H (% Control rating)",[1]; [3],B (≤ 80)
same,"SEPTTR 3DC, LV activity at 125.1 g/H (% Control rating)",[1]; [4],A (> 80)
same,"PUCCRT 1DP, LV activity at 125.1 g/H (% Control rating)",[2]; [3],A (> 80)
same,"PUCCRT 3DC, LV activity at 125.1 g/H (% Control rating)",[2]; [4],B (≤ 80)
